Assay results published in ChEMBL document CHEMBL6109045, “Photosensitizer associated with efflux pump inhibitors as a strategy for photodynamic therapy against bacterial resistance” (2025).

How the values were obtained:
Staphylococcus aureus [1] = assay: Antibacterial activity against Staphylococcus aureus ATCC 25923 assessed as reduction in bacterial growth at 20 uM in presence of 100 J/cm2 light irradiation by photosensitization assay; assay type: functional
Escherichia coli [2] = assay: Antibacterial activity against Escherichia coli ATCC 25922 assessed as reduction in bacterial growth at 20 uM in presence of 100 J/cm2 light irradiation by photosensitization assay; assay type: functional
Escherichia coli [3] = assay: Antibacterial activity against Escherichia coli K12 assessed as reduction in bacterial growth at 20 uM in presence of 6 J/cm2 light irradiation by photosensitization assay; assay type: functional
Staphylococcus aureus [4] = assay: Antibacterial activity against methicillin-resistant Staphylococcus aureus ATCC 33591 assessed as reduction in bacterial growth at 20 uM in presence of 6 J/cm2 light irradiation by photosensitization assay; assay type: functional
Acinetobacter baumannii [5] = assay: Antibacterial activity against Acinetobacter baumannii ATCC 17978 assessed as reduction in bacterial growth at 20 uM in presence of 6 J/cm2 light irradiation by photosensitization assay; assay type: functional
Acinetobacter baumannii [6] = assay: Antibacterial activity against Acinetobacter baumannii ATCC 17978 assessed as reduction in bacterial growth at 10 uM in presence of 22.5 J/cm2 light irradiation by photosensitization assay; assay type: functional
Pseudomonas aeruginosa [7] = assay: Antibacterial activity against Pseudomonas aeruginosa ATCC 27853 assessed as reduction in bacterial growth at 10 uM in presence of 100 J/cm2 light irradiation by photosensitization assay; assay type: functional
Acinetobacter baumannii [8] = assay: Antibacterial activity against Acinetobacter baumannii ATCC 17978 assessed as reduction in bacterial growth at 2 uM in presence of 22.5 J/cm2 light irradiation by photosensitization assay; assay type: functional
Pseudomonas aeruginosa [9] = assay: Antibacterial activity against Pseudomonas aeruginosa ATCC 27853 assessed as reduction in bacterial growth at 60 ug/ml in presence of 100 J/cm2 light irradiation by photosensitization assay; assay type: functional; conditions: dose 60 µg/ml
Staphylococcus aureus [10] = assay: Antibacterial activity against Staphylococcus aureus ATCC 29213 assessed as reduction in bacterial growth at 300 ug/ml in presence of 12 J/cm2 light irradiation by photosensitization assay; assay type: functional; conditions: dose 300 µg/ml
Escherichia coli [11] = assay: Antibacterial activity against Escherichia coli assessed as reduction in bacterial growth at 100 uM in presence of 100 J/cm2 light irradiation by photosensitization assay; assay type: functional
Escherichia coli [12] = assay: Antibacterial activity against Escherichia coli assessed as reduction in bacterial growth at 20 uM in presence of 80 J/cm2 light irradiation by photosensitization assay; assay type: functional, organism-based
Staphylococcus aureus [13] = assay: Antibacterial activity against Staphylococcus aureus ATCC 29213 assessed as reduction in bacterial growth at 5 uM in presence of 18 J/cm2 light irradiation by photosensitization assay; assay type: functional
Enterococcus faecalis [14] = assay: Antibacterial activity against Staphylococcus aureus ATCC 29212 assessed as reduction in bacterial growth at 14 uM in presence of 25 J/cm2 light irradiation by photosensitization assay; assay type: functional
Staphylococcus aureus [15] = assay: Antibacterial activity against Staphylococcus aureus assessed as reduction in bacterial growth at 200 ug/ml in presence of 180 J/cm2 light irradiation by photosensitization assay; assay type: functional; conditions: dose 200 µg/ml
Staphylococcus aureus [16] = assay: Antibacterial activity against Staphylococcus aureus ATCC 29213 assessed as reduction in bacterial growth at 0.25 uM in presence of 8 J/cm2 light irradiation by photosensitization assay; assay type: functional
Staphylococcus aureus [17] = assay: Antibacterial activity against Staphylococcus aureus ATCC 29213 assessed as reduction in bacterial growth at 8 uM in presence of 30 J/cm2 light irradiation by photosensitization assay; assay type: functional
Escherichia coli [18] = assay: Antibacterial activity against Escherichia coli assessed as reduction in bacterial growth at 8 uM in presence of 30 J/cm2 light irradiation by photosensitization assay; assay type: functional
Staphylococcus aureus [19] = assay: Antibacterial activity against methicillin-resistant Staphylococcus aureus ATCC 33591 assessed as reduction in bacterial growth at 8 uM in presence of 30 J/cm2 light irradiation by photosensitization assay; assay type: functional
Staphylococcus aureus [20] = assay: Antibacterial activity against methicillin-resistant Staphylococcus aureus ATCC 33591 assessed as reduction in bacterial growth at 1 uM in presence of 8 J/cm2 light irradiation by photosensitization assay; assay type: functional
Pseudomonas aeruginosa [21] = assay: Antibacterial activity against Pseudomonas aeruginosa ATCC 27853 assessed as reduction in bacterial growth at 16 uM in presence of 54 J/cm2 light irradiation by photosensitization assay; assay type: functional
Staphylococcus aureus [22] = assay: Antibacterial activity against Staphylococcus aureus […] assessed as reduction in bacterial growth at 64 ug/ml in presence of 18 J/cm2 light irradiation by photosensitization assay; assay type: functional; conditions: dose 64 µg/ml
Staphylococcus aureus [23] = assay: Antibacterial activity against Staphylococcus aureus MCC 2408 assessed as reduction in bacterial growth at 16 uM in presence of 54 J/cm2 light irradiation by photosensitization assay; assay type: functional
Pseudomonas aeruginosa [24] = assay: Antibacterial activity against Pseudomonas aeruginosa ATCC 27853 assessed as reduction in bacterial growth at 400 uM in presence of 72 J/cm2 light irradiation by photosensitization assay; assay type: functional
Pseudomonas aeruginosa [25] = assay: Antibacterial activity against Pseudomonas aeruginosa ATCC 27853 assessed as reduction in bacterial growth at 7000 ug/ml in presence of 18 J/cm2 light irradiation by photosensitization assay; assay type: functional; conditions: dose 7000 µg/ml
Pseudomonas aeruginosa [26] = assay: Antibacterial activity against Pseudomonas aeruginosa ATCC 27853 assessed as reduction in bacterial growth at 10 to 20 ug/ml in presence of 18 J/cm2 light irradiation by photosensitization assay; assay type: functional; conditions: dose 10-20 µg/ml
Enterococcus faecalis [27] = assay: Antibacterial activity against Enterococcus faecalis assessed as reduction in bacterial growth at 16 uM in presence of 54 J/cm2 light irradiation by photosensitization assay; assay type: functional
Staphylococcus aureus [28] = assay: Antibacterial activity against Staphylococcus aureus MCC 2408 assessed as reduction in bacterial growth at 0.62 ug/ml in presence of 18 J/cm2 light irradiation by photosensitization assay; assay type: functional; conditions: dose 0.62 µg/ml
Staphylococcus aureus [29] = assay: Antibacterial activity against Staphylococcus aureus MCC 2408 assessed as reduction in bacterial growth at 400 uM in presence of 72 J/cm2 light irradiation by photosensitization assay; assay type: functional
Staphylococcus aureus [30] = assay: Antibacterial activity against Staphylococcus aureus MCC 2408 assessed as reduction in bacterial growth at 50 ug/ml in presence of 58.49 J/cm2 light irradiation by photosensitization assay; assay type: functional; conditions: dose 50 µg/ml
Staphylococcus aureus [31] = assay: Antibacterial activity against Staphylococcus aureus assessed as reduction in bacterial growth at 20 uM in presence of 80 J/cm2 light irradiation by photosensitization assay; assay type: functional
Staphylococcus aureus [32] = assay: Antibacterial activity against Staphylococcus aureus ATCC 25923 assessed as reduction in bacterial growth at 50 ug/ml in presence of 58.49 J/cm2 light irradiation by photosensitization assay; assay type: functional; conditions: dose 50 µg/ml
Klebsiella aerogenes = assay: Antibacterial activity against Klebsiella aerogenes assessed as reduction in bacterial growth at 16 uM in presence of 54 J/cm2 light irradiation by photosensitization assay; assay type: functional
Escherichia coli [33] = assay: Antibacterial activity against Escherichia coli ATCC 25922 assessed as reduction in bacterial growth in presence of 6 J/cm2 light irradiation by photosensitization assay; assay type: functional
Staphylococcus aureus [34] = assay: Antibacterial activity against Staphylococcus aureus ATCC 25923 assessed as reduction in bacterial growth in presence of 6 J/cm2 light irradiation by photosensitization assay; assay type: functional
Staphylococcus aureus [35] = assay: Antibacterial activity against Staphylococcus aureus ATCC 25923 assessed as reduction in bacterial growth at 5 ug/ml in presence of 97.65 J/cm2 light irradiation by photosensitization assay; assay type: functional; conditions: dose 5 µg/ml
Acinetobacter baumannii [36] = assay: Antibacterial activity against Acinetobacter baumannii ATCC BAA 747 assessed as reduction in bacterial growth at 2 uM in presence of 22.5 J/cm2 light irradiation by photosensitization assay; assay type: functional
Bacillus subtilis = assay: Antibacterial activity against Bacillus subtilis assessed as reduction in bacterial growth at 2 uM in presence of 22.5 J/cm2 light irradiation by photosensitization assay; assay type: functional
Pseudomonas aeruginosa [37] = assay: Antibacterial activity against Pseudomonas aeruginosa ATCC 27853 assessed as reduction in bacterial growth at 50 ug/ml in presence of 58.4 J/cm2 light irradiation by photosensitization assay; assay type: functional; conditions: dose 50 µg/ml
Pseudomonas aeruginosa [38] = assay: Antibacterial activity against Pseudomonas aeruginosa ATCC 27853 assessed as reduction in bacterial growth at 50 ug/ml in presence of 97.65 J/cm2 light irradiation by photosensitization assay; assay type: functional; conditions: dose 50 µg/ml

O=S(=O)(O)c1ccc(-c2c3nc(c(-c4ccc(S(=O)(=O)O)cc4)c4ccc([nH]4)c(-c4ccc(S(=O)(=O)O)cc4)c4nc(c(-c5ccc(S(=O)(=O)O)cc5)c5ccc2[nH]5)C=C4)C=C3)cc1
log(activity) (Staphylococcus aureus [1]): 7 | log(activity) (Escherichia coli [2]): 7

CN(CCCOc1ccccc1NC(=O)Nc1ccc2ccccc2c1)CCN(C)c1ccc2nc3ccc(N(C)C)cc3[s+]c2c1.[Cl-]
log(activity) (Escherichia coli [3]): 3 | log(activity) (Staphylococcus aureus [4]): 4 | log(activity) (Acinetobacter baumannii [5]): 3

C1=Cc2nc1c(-c1ccccc1)c1ccc([nH]1)c(-c1ccccc1)c1nc(c(-c3ccccc3)c3ccc([nH]3)c2-c2ccccc2)C=C1
log(activity) (Staphylococcus aureus [1]): 5 | log(activity) (Escherichia coli [2]): 3

CN(CCN(C)c1ccc2nc3ccc(N(C)C)cc3[s+]c2c1)Cc1ccc(-c2cc3cc([N+](=O)[O-])ccc3[nH]2)cc1.Cl
log(activity) (Escherichia coli [3]): 4 | log(activity) (Staphylococcus aureus [4]): 3 | log(activity) (Acinetobacter baumannii [5]): 5

CCNc1cc2[s+]c3cc(NCC)c(C)cc3nc2cc1C.[Cl-]
log(activity) (Acinetobacter baumannii [6]): 3 | log(activity) (Pseudomonas aeruginosa [7]): 3 | log(activity) (Acinetobacter baumannii [8]): 6

CN(CCN(C)c1ccc2nc3ccc(N(C)C)cc3[s+]c2c1)C(=O)c1ccc(-c2cc3cc([N+](=O)[O-])ccc3[nH]2)cc1.Cl
log(activity) (Escherichia coli [3]): 6 | log(activity) (Staphylococcus aureus [4]): 6 | log(activity) (Acinetobacter baumannii [5]): 4

O=[N+]([O-])c1ccc(-c2c3nc(c(-c4ccc([N+](=O)[O-])cc4)c4ccc([nH]4)c(-c4ccc([N+](=O)[O-])cc4)c4nc(c(-c5ccc([N+](=O)[O-])cc5)c5ccc2[nH]5)C=C4)C=C3)cc1
log(activity) (Pseudomonas aeruginosa [9]): 2

Cc1cc(N(C)C)cc2[s+]c3cc(N(C)C)cc(C)c3nc12.[Cl-]
log(activity) (Staphylococcus aureus [10]): 99%

CN(C)c1ccc2nc3ccc(N4CCN(CCCOc5ccccc5NC(=O)Nc5ccc6ccccc6c5)CC4)cc3[s+]c2c1.[Cl-]
log(activity) (Escherichia coli [3]): 3 | log(activity) (Staphylococcus aureus [4]): 3

C[n+]1cccc(-c2c3nc(c(-c4ccc[n+](C)c4)c4ccc([nH]4)c(-c4ccc[n+](C)c4)c4nc(c(-c5ccc[n+](C)c5)c5ccc2[nH]5)C=C4)C=C3)c1
log(activity) (Escherichia coli [11]): 6 | log(activity) (Escherichia coli [12]): 7

COc1cc(/C=C/C(=O)CC(=O)/C=C/c2ccc(O)c(OC)c2)ccc1O [CURCUMIN]
log(activity) (Staphylococcus aureus [13]): 7 | log(activity) (Enterococcus faecalis [14]): 10

CC1=C(CCC(=O)O)c2cc3[nH]c(cc4nc(cc5[nH]c(cc1n2)c(C)c5C(C)O)C(C)=C4C(C)O)c(C)c3CCC(=O)O (stereo not drawn) [HEMATOPORPHYRIN]
log(activity) (Escherichia coli [11]): <6 | log(activity) (Staphylococcus aureus [15]): >6

Cc1cc(O)c2c(=O)c3c(O)cc(O)c4c5c(O)cc(O)c6c(=O)c7c(O)cc(C)c8c1c2c(c34)c(c78)c65 [HYPERICIN]
log(activity) (Staphylococcus aureus [16]): >6 | log(activity) (Staphylococcus aureus [17]): >6 | log(activity) (Escherichia coli [18]): 0.06 | log(activity) (Staphylococcus aureus [19]): >0.6 | log(activity) (Staphylococcus aureus [20]): >0.6

CN(C)c1ccc2nc3ccc(N(C)C)cc3[s+]c2c1.[Cl-] [METHYLENE BLUE ANHYDROUS]
log(activity) (Pseudomonas aeruginosa [21]): 1.1 | log(activity) (Staphylococcus aureus [22]): 6 | log(activity) (Staphylococcus aureus [23]): 5 | log(activity) (Pseudomonas aeruginosa [24]): 4.1 | log(activity) (Pseudomonas aeruginosa [25]): 6 | log(activity) (Pseudomonas aeruginosa [26]): 6 | log(activity) (Enterococcus faecalis [27]): 0.7 | log(activity) (Staphylococcus aureus [28]): 6 | log(activity) (Staphylococcus aureus [29]): 7.3 | log(activity) (Staphylococcus aureus [30]): 2.38

C[n+]1ccc(-c2c3nc(c(-c4cc[n+](C)cc4)c4ccc([nH]4)c(-c4cc[n+](C)cc4)c4ccc([nH]4)c(-c4cc[n+](C)cc4)c4nc2C=C4)C=C3)cc1 [TMPYP4]
log(activity) (Staphylococcus aureus [1]): 7 | log(activity) (Escherichia coli [2]): 7 | log(activity) (Staphylococcus aureus [31]): 7

Cc1cc2nc3ccc(N(C)C)cc3[s+]c2cc1N.[Cl-] [TOLONIUM CHLORIDE]
log(activity) (Staphylococcus aureus [32]): 2.21 | log(activity) (Klebsiella aerogenes): >8 | log(activity) (Escherichia coli [33]): 0.08 | log(activity) (Staphylococcus aureus [34]): 5.83 | log(activity) (Staphylococcus aureus [35]): 2.66 | log(activity) (Acinetobacter baumannii [36]): 3 | log(activity) (Bacillus subtilis): >6 | log(activity) (Pseudomonas aeruginosa [37]): 2.2 | log(activity) (Pseudomonas aeruginosa [38]): 2.36
